Measurements published in ChEMBL document CHEMBL5705893, “Targeting the mitotic checkpoint for cancer therapy with NMS-P715, an inhibitor of MPS1 kinase” (Cancer Res, 2010).
Calls of active or inactive are those of the source. No cut-off for these calls is given here.

Columns and labels:
[1] = Inhibition of recombinant ABL (unknown origin); set-up: species or system Homo sapiens
[2] = biological target: ALK tyrosine kinase receptor (Homo sapiens, UniProt Q9UM73); experiment: Inhibition of recombinant ALK (unknown origin)
Sequence of ALK tyrosine kinase receptor (Q9UM73 whole entry): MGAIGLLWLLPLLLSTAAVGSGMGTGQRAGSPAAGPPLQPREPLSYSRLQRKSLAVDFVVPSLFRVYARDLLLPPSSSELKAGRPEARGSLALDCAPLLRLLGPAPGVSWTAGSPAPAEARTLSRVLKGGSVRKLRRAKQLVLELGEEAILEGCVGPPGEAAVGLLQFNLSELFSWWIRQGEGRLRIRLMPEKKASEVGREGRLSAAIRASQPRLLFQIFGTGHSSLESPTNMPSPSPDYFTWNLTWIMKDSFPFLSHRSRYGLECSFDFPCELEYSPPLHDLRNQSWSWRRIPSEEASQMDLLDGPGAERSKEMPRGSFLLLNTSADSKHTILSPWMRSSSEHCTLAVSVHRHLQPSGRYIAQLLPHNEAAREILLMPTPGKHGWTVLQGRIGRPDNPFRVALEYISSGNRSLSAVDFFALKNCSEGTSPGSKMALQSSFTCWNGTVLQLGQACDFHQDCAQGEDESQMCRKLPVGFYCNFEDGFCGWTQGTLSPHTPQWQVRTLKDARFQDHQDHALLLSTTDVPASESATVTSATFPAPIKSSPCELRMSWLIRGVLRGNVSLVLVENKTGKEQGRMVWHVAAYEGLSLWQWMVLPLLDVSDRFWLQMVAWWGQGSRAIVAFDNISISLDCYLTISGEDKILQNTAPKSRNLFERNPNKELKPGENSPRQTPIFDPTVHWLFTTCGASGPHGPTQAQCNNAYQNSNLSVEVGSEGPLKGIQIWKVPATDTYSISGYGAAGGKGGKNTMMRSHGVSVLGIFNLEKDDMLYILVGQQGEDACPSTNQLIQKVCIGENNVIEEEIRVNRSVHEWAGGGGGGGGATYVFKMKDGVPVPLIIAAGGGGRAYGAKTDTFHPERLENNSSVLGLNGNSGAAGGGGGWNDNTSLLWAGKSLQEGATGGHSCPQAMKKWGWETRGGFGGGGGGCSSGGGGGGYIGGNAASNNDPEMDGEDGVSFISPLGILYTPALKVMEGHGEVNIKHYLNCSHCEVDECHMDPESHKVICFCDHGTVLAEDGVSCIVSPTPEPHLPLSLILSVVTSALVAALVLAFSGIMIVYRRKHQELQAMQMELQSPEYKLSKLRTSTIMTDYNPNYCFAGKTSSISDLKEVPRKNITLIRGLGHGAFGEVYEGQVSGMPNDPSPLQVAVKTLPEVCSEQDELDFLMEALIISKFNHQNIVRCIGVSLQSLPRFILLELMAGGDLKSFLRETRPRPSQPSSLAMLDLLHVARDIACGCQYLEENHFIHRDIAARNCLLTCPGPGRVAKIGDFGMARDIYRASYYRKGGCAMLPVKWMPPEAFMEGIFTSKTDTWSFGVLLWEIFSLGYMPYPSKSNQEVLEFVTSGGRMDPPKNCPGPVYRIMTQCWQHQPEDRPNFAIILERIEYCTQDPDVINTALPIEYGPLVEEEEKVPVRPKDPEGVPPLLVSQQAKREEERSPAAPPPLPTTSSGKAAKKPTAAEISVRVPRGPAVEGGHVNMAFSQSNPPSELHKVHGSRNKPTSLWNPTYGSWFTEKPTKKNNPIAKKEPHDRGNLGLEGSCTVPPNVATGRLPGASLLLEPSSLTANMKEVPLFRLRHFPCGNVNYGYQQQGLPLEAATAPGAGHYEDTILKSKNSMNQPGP

[3] = biological target: Protein-tyrosine kinase 6 (Homo sapiens, UniProt Q13882); experiment: Inhibition of recombinant BRK (unknown origin)
Sequence of Protein-tyrosine kinase 6 (Q13882 whole entry): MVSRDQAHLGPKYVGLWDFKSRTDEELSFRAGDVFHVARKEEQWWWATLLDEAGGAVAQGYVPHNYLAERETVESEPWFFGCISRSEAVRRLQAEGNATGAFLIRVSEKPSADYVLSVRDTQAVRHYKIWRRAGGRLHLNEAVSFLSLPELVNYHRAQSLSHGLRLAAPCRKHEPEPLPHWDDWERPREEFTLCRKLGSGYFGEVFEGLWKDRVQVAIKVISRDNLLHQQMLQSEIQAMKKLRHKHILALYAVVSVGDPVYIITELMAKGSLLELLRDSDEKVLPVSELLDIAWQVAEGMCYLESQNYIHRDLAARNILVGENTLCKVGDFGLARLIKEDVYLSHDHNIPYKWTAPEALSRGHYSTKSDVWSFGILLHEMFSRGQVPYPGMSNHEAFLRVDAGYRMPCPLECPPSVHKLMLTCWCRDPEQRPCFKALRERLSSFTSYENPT

[4] = biological target: Serine/threonine-protein kinase haspin (Homo sapiens, UniProt Q8TF76); experiment: Inhibition of recombinant Haspin (unknown origin)
Sequence of Serine/threonine-protein kinase haspin (Q8TF76 whole entry): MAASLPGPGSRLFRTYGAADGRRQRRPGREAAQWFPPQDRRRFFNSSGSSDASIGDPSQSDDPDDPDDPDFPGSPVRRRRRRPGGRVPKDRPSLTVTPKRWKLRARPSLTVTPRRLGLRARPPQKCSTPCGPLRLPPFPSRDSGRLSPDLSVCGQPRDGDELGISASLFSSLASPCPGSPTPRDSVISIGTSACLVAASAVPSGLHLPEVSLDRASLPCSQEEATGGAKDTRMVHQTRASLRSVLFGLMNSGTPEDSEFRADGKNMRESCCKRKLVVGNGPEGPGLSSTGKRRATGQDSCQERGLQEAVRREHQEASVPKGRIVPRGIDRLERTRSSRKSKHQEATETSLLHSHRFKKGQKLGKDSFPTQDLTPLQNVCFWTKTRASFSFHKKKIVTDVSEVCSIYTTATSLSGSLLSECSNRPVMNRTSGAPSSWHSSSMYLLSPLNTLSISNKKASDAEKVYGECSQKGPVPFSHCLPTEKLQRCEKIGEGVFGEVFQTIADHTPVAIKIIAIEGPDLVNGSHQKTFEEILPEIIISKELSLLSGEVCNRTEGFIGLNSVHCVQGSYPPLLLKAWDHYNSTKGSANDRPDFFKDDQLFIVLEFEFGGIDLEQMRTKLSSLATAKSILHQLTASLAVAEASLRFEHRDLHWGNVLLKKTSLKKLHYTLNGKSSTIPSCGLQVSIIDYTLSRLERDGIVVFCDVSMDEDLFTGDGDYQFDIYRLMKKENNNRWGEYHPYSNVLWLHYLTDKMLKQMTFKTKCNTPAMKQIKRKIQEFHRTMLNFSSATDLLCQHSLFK

[5] = biological target: Maternal embryonic leucine zipper kinase (Homo sapiens, UniProt Q14680); experiment: Inhibition of recombinant MELK (unknown origin)
Sequence of Maternal embryonic leucine zipper kinase (Q14680 whole entry): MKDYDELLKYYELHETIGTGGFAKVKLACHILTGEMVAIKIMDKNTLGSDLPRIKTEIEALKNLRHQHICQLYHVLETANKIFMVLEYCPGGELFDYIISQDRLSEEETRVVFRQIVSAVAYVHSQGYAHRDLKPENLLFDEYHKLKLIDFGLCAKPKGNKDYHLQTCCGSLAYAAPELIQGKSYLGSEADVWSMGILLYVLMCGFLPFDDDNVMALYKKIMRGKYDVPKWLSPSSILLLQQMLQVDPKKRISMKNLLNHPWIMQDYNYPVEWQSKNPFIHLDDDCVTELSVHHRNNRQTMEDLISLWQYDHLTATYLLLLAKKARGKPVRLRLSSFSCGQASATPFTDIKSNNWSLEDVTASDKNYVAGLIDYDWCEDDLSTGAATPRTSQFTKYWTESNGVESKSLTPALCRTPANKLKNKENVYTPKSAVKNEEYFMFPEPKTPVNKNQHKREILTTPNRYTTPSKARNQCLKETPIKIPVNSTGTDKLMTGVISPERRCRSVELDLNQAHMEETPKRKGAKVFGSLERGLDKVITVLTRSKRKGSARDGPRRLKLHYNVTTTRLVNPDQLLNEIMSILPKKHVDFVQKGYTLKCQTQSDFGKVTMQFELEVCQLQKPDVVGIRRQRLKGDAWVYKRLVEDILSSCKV

[6] = biological target: Serine/threonine-protein kinase NIM1 (Homo sapiens, UniProt Q8IY84); experiment: Inhibition of recombinant NIM1 (unknown origin)
Sequence of Serine/threonine-protein kinase NIM1 (Q8IY84 whole entry): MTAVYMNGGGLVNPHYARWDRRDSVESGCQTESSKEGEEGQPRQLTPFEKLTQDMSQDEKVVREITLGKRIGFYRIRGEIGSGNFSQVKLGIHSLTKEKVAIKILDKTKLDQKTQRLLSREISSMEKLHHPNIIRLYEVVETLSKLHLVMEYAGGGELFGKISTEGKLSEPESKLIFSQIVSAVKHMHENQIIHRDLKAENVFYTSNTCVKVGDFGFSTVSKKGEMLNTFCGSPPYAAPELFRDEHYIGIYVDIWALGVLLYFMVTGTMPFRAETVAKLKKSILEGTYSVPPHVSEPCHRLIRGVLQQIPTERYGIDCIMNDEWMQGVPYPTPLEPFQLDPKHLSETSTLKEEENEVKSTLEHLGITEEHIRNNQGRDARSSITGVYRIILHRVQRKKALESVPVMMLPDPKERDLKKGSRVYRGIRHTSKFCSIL

[7] = Inhibition of recombinant PDGFR (unknown origin); set-up: species or system Homo sapiens
[8] = Inhibition of recombinant SULU1 (unknown origin); set-up: species or system Homo sapiens
T47D = experiment: Antiproliferative activity against human T47D cells assessed as inhibition of cell growth incubated for 72 hrs by celltiter-glo assay; format: functional, cell-based
SW-620 = experiment: Antiproliferative activity against human SW620 cells assessed as inhibition of cell growth incubated for 72 hrs by celltiter-glo assay; format: functional, cell-based; conditions: SW-620, 72 h
SW948 = experiment: Antiproliferative activity against human SW948 cells assessed as inhibition of cell growth incubated for 72 hrs by celltiter-glo assay; format: functional, cell-based; conditions: SW948, 72 h
T84 = experiment: Antiproliferative activity against human T84 cells assessed as inhibition of cell growth incubated for 72 hrs by celltiter-glo assay; format: functional, cell-based; conditions: T84, 72 h
A-431 = experiment: Antiproliferative activity against human A-431 cells assessed as inhibition of cell growth incubated for 72 hrs by celltiter-glo assay; format: functional, cell-based; conditions: A-431, 72 h
SF-295 = experiment: Antiproliferative activity against human SF-295 cells assessed as inhibition of cell growth incubated for 72 hrs by celltiter-glo assay; format: functional, cell-based; conditions: SF-295, 72 h
K562 = experiment: Antiproliferative activity against human K562 cells assessed as inhibition of cell growth incubated for 72 hrs by celltiter-glo assay; format: functional, cell-based; conditions: K562, 72 h
HEL = experiment: Antiproliferative activity against human HEL cells assessed as inhibition of cell growth incubated for 72 hrs by celltiter-glo assay; format: functional, cell-based
NCI-H23 = experiment: Antiproliferative activity against human NCI-H23 cells assessed as inhibition of cell growth incubated for 72 hrs by celltiter-glo assay; format: functional, cell-based; conditions: NCI-H23, 72 h
RERF-LC-AI = experiment: Antiproliferative activity against human RERF-LC-AI cells assessed as inhibition of cell growth incubated for 72 hrs by celltiter-glo assay; format: functional, cell-based
NCI-H2126 = experiment: Antiproliferative activity against human NCI-H2126 cells assessed as inhibition of cell growth incubated for 72 hrs by celltiter-glo assay; format: functional, cell-based; conditions: NCI-H2126, 72 h
SU-DHL-8 = experiment: Antiproliferative activity against human SU-DHL-8 cells assessed as inhibition of cell growth incubated for 72 hrs by celltiter-glo assay; format: functional, cell-based; conditions: SU-DHL-8, 72 h
SU-DHL10 = experiment: Antiproliferative activity against human SU-DHL-10 cells assessed as inhibition of cell growth incubated for 72 hrs by celltiter-glo assay; format: functional, cell-based; conditions: SU-DHL10, 72 h
SR = experiment: Antiproliferative activity against human SR cells assessed as inhibition of cell growth incubated for 72 hrs by celltiter-glo assay; format: functional, cell-based
SK-MEL-2 = experiment: Antiproliferative activity against human SK-MEL-2 cells assessed as inhibition of cell growth incubated for 72 hrs by celltiter-glo assay; format: functional, cell-based; conditions: SK-MEL-2, 72 h
OPM-2 = experiment: Antiproliferative activity against human OPM-2 cells assessed as inhibition of cell growth incubated for 72 hrs by celltiter-glo assay; format: functional, cell-based; conditions: OPM-2, 72 h
BJ [9] = experiment: Antiproliferative activity against human BJ cells assessed as inhibition of cell growth incubated for 72 hrs by celltiter-glo assay; format: functional, cell-based
DU-145 = experiment: Antiproliferative activity against human DU-145 cells assessed as inhibition of cell growth incubated for 72 hrs by celltiter-glo assay; format: functional, cell-based; conditions: DU-145, 72 h
PC-3 = experiment: Antiproliferative activity against human PC-3 cells assessed as inhibition of cell growth incubated for 72 hrs by celltiter-glo assay; format: functional, cell-based; conditions: PC-3, 72 h
SN12C = experiment: Antiproliferative activity against human SN12C cells assessed as inhibition of cell growth incubated for 72 hrs by celltiter-glo assay; format: functional, cell-based
[10] = Antiproliferative activity against human NPA cells assessed as inhibition of cell growth incubated for 72 hrs by celltiter-glo assay; format: functional, cell-based
U2OS [11] = experiment: Induction of mitotic arrest in human U2OS cells expressing YFP-alpha-tubulin assessed as reduction in mitotic cells at 1 micromol/L by time-lapse microscopic analysis; format: functional, cell-based; conditions: dose 1.0 µmol/L
U2OS [12] = experiment: Induction of mitotic arrest in human U2OS cells expressing YFP-alpha-tubulin assessed as mitotic index at 1 micromol/L in presence of MG132 by time-lapse microscopic analysis; format: functional, cell-based; conditions: dose 1.0 µmol/L
HeLa [13] = experiment: Induction of mitotic arrest in human nocodazole-arrested HeLa cells assessed as delocalization of MAD1 at 1 micromol/L in presence of MG132; format: functional, cell-based; conditions: dose 1.0 µmol/L
HeLa [14] = experiment: Effect on CENPB level in human nocodazole-arrested HeLa cells at 1 micromol/L in presence of MG132; format: functional, cell-based; conditions: dose 1.0 µmol/L
HeLa [15] = experiment: Inhibition of cdc20-BUB3 protein-protein interaction in human nocodazole arrested HeLa cells by Coimmunoprecipitation analysis; format: cell-based
U2OS [16] = experiment: Induction of mitotic arrest in human U2OS cells expressing YFP alpha-tubulin assessed as chromosome misalignment in metaphase incubated for 1 hr by DAPI staining based confocal microscopic analysis; format: functional, cell-based
U2OS [17] = experiment: Induction of mitotic arrest in human U2OS cells expressing YFP alpha-tubulin assessed as chromosome misalignment in anaphase incubated for 1 hr by DAPI staining based confocal microscopic analysis; format: functional, cell-based
HCT-116 [18] = experiment: Cell cycle arrest in human HCT-116 cells assessed as accumulation of cells at G1 phase at 0.2 to 1 micromol/L incubated for 48 hrs by FACS/PI staining based flow cytometric analysis; format: functional; conditions: dose 0.2-1 µmol/L
HCT-116 [19] = experiment: Induction of apoptosis in human HCT-116 cells at 1 micromol/L incubated for 24 to 72 hrs by FACS/PI staining based flow cytometric analysis; format: functional; conditions: dose 1 µmol/L; time 24-72 hrs; at 1 µM
U2OS [20] = experiment: Inhibition of colony formation in human U2OS cells assessed as decrease in colony number incubated for 22 hrs followed by compound washout and measured after 8 days by crystal violet staining based assay; format: functional, cell-based
BJ [21] = experiment: Inhibition of colony formation in human BJ cells assessed as decrease in colony number at 0.5 to 3 uM incubated for 72 hrs followed by compound washout and measured after 18 days by crystal violet staining based assay; format: functional, cell-based; conditions: dose 0.5-3 µM
[22] = Oral bioavailability in Athymic nu-nu mouse at 10 mg/kg measured upto 24 hrs by LC-MS/MS analysis; format: ADME, organism-based; conditions: in vivo
A2780 = experiment: Antitumor activity against human A2780 cells xenografted in Athymic nu-nu nude mouse assessed as reduction in histone H3 phosphorylation at 100 mg/kg, po administered for 2 days and measured after 6 hrs by Western blot analysis; format: functional, organism-based; conditions: time 54.0 hrs

IC50 [1]: > 10000 nM
IC50 [2]: > 10000 nM
IC50 [3]: > 10000 nM
IC50 [4]: > 10000 nM
IC50 [5]: 6010 nM
IC50 [6]: > 10000 nM
IC50 [7]: > 10000 nM
IC50 [8]: > 10000 nM
IC50 (T47D): 2860 nM
IC50 (SW-620): 472 nM
IC50 (SW948): 1960 nM
IC50 (A-431): 469 nM
IC50 (K562): 2700 nM
IC50 (NCI-H23): 1220 nM
IC50 (NCI-H2126): 4630 nM
IC50 (SU-DHL-8): 829 nM
IC50 (SU-DHL10): 1580 nM
IC50 (SK-MEL-2): 1490 nM
IC50 (DU-145): 1930 nM
IC50 (PC-3): 1990 nM
bioavailability [22]: 37.9%
SMILES: CCc1cccc(CC)c1NC(=O)c1nn(C)c2c1CCc1cnc(Nc3ccc(C(=O)NC4CCN(C)CC4)cc3OC(F)(F)F)nc1-2
IC50 (T84): 10000 nM
IC50 (SF-295): 2880 nM
IC50 (HEL): 5490 nM
IC50 (RERF-LC-AI): 2070 nM
IC50 (SR): 6960 nM
IC50 (OPM-2): 2310 nM
IC50 (BJ [9]): 5470 nM
IC50 (SN12C): 1220 nM
IC50 [10]: 2640 nM
Activity (U2OS [11]): Active
Activity (U2OS [12]): inactive
Activity (HeLa [13]): Active
Activity (HeLa [14]): Active
inhibition (HeLa [15]): Active
Activity (U2OS [16]): Active
Activity (U2OS [17]): Active
Activity (HCT-116 [18]): Active
Activity (HCT-116 [19]): 100%
Activity (U2OS [20]): Active
Activity (BJ [21]): Active
Activity (A2780): Active
